Measured values: patent publication US20100092497A1, “METHODS OF IMMUNE OR HAEMATOLOGICAL ENHANCEMENT, INHIBITING TUMOUR FORMATION OR GROWTH, AND TREATING OR PREVENTING CANCER” (priority 2006, published 2010)

Key:
[1] = tested on: EL-4 T cell thymic lymphoma; assay: EL-4 tumour challenge in mice fed experimental diets (tumour growth, rejection, response to paclitaxel); type: in vivo, C57BL/6 mice; conditions: Example 1; control diet; paclitaxel 30 mg/Kg i.p. at tumours ~0.6 cm
EL-4 target cells = assay: Anti-tumour cytolytic activity of splenocytes (CTL assay); type: cell-based, mouse; conditions: Example 4; high dose vitamin D (45.2 mg/Kg) by itself or Fe-saturated Lf
Protocol: Splenocytes were harvested 28 days following tumour cell injection, as specified. They were incubated at 37° C. with EL-4 target cells in graded E:T ratios in 96-well round-bottom plates. After a 4-hour incubation, 50 μl of supernatant was collected, and lysis was measured using the Cyto Tox 96 Assay Kit (Promega, Madison, Wis., USA). Background controls for non-specific target and effector cell lysis were included. After background subtraction, percentage of cell lysis was calculated using the formula: 100×(experimental-spontaneous effector-spontaneous target/maximum target-spontaneous target).

[2] = daily for several years; cited from earlier work

Compound: CC(=O)O[C@H]1C(=O)[C@@]2(C)[C@H]([C@H](OC(=O)c3ccccc3)[C@]3(O)C[C@H](OC(=O)[C@H](O)[C@@H](NC(=O)c4ccccc4)c4ccccc4)C(C)=C1C3(C)C)[C@]1(OC(C)=O)CO[C@@H]1C[C@@H]2O [paclitaxel, reference compound]
- tumour response to paclitaxel [1]: completely resistant

Compound: C=C1CC[C@H](O)C/C1=C/C=C1\CCC[C@]2(C)[C@@H]([C@H](C)CCCC(C)C)CC[C@@H]12 [vitamin D, cholecalciferol, reference compound]
- increase in anti-tumour cytolytic activity of splenocytes, agent by itself (EL-4 target cells): 1.9 fold
- daily ingestion after which most cases of toxicity were reported [2]: greater than 50,000 IU
